Experimental data from patent publication US20230085307A1, “PYRIDAZINONE COMPOUND AND HERBICIDE” (NISSAN CHEMICAL CORPORATION, priority 2019, published 2023).

Assays:
[1] = test system: persian speedwell; experiment: Test Example 5: herbicidal effect by foliage application, plastic box (Table 20, symbol R); assay type: in vivo, Persian speedwell (Veronica persica); settings: foliage application, AAH 320 g/ha, three weeks after application
In short: (§1)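 Plants were sown into sterilized diluvial soil under about 1.5 cm cover and kept in a greenhouse at 25° C. to 30° C. Fourteen days on, foliage received an even spray of the diluted emulsion. Herbicidal or crop effect was judged three weeks afterwards.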

[2] = test system: wild oat; experiment: Test Example 5: herbicidal effect by foliage application, plastic box (Table 20, symbol I); assay type: in vivo, wild oat (Avena fatua); settings: foliage application, AAH 320 g/ha, three weeks after application
In short: as §1

[3] = test system: southern crabgrass; experiment: Test Example 4: herbicidal effect by soil treatment (Table 19, symbol F); assay type: in vivo, southern crabgrass (Digitaria ciliaris); settings: AAH 320 g/ha
In short: (§2)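 In this soil treatment, the formulated compound reached the seeds only through the soil: seeds were buried about 1.5 cm deep in sterilized diluvial soil, then the diluted emulsion was sprayed over the surface. After three weeks at 25° C. to 30° C. in a greenhouse, effects were graded on criteria from an earlier test.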

[4] = test system: Chinese sprangletop; experiment: Test Example 3: herbicidal effect by foliage application, Wagner pot (Table 18, symbol D); assay type: in vivo, chinese sprangletop (Leptochloa chinensis); settings: 320 g/ha
In short: (§3)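 Plants were sown in alluvial soil held under 0.1–0.5 cm standing water and grown 14 days in a greenhouse at 25–30 °C. An emulsifiable formulation, water-diluted to the set dose, was then sprayed onto the foliage, and effects were scored three weeks later using previously defined criteria.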

[5] = test system: chickweed; experiment: Test Example 5: herbicidal effect by foliage application, plastic box (Table 20, symbol P); assay type: in vivo, common chickweed (Stellaria media); settings: foliage application, AAH 320 g/ha, three weeks after application
In short: as §1

[6] = test system: barnyard grass; experiment: Test Example 3: herbicidal effect by foliage application, Wagner pot (Table 18, symbol H); assay type: in vivo, barnyard grass (Echinochloa crus-galli); settings: 320 g/ha
In short: as §3

[7] = test system: lambsquarters; experiment: Test Example 4: herbicidal effect by soil treatment (Table 19, symbol O); assay type: in vivo, lambsquarters (Chenopodium album); settings: AAH 320 g/ha
In short: as §2

[8] = test system: persian speedwell; experiment: Test Example 4: herbicidal effect by soil treatment (Table 19, symbol R); assay type: in vivo, Persian speedwell (Veronica persica); settings: AAH 320 g/ha
In short: as §2

[9] = test system: southern crabgrass; experiment: Test Example 5: herbicidal effect by foliage application, plastic box (Table 20, symbol F); assay type: in vivo, southern crabgrass (Digitaria ciliaris); settings: foliage application, AAH 320 g/ha, three weeks after application
In short: as §1

[10] = test system: wild oat; experiment: Test Example 4: herbicidal effect by soil treatment (Table 19, symbol I); assay type: in vivo, wild oat (Avena fatua); settings: AAH 320 g/ha
In short: as §2

[11] = test system: windgrass; experiment: Test Example 5: herbicidal effect by foliage application, plastic box (Table 20, symbol L); assay type: in vivo, windgrass (Apera spica-venti); settings: foliage application, AAH 320 g/ha, three weeks after application
In short: as §1

[12] = test system: green foxtail; experiment: Test Example 4: herbicidal effect by soil treatment (Table 19, symbol G); assay type: in vivo, green foxtail (Setaria viridis); settings: AAH 320 g/ha
In short: as §2

[13] = test system: velvetleaf; experiment: Test Example 5: herbicidal effect by foliage application, plastic box (Table 20, symbol M); assay type: in vivo, velvetleaf (Abutilon theophrasti); settings: foliage application, AAH 320 g/ha, three weeks after application
In short: as §1

[14] = test system: windgrass; experiment: Test Example 4: herbicidal effect by soil treatment (Table 19, symbol L); assay type: in vivo, windgrass (Apera spica-venti); settings: AAH 320 g/ha
In short: as §2

[15] = test system: barnyard grass; experiment: Test Example 4: herbicidal effect by soil treatment (Table 19, symbol H); assay type: in vivo, barnyard grass (Echinochloa crus-galli); settings: AAH 320 g/ha
In short: as §2

[16] = test system: velvetleaf; experiment: Test Example 4: herbicidal effect by soil treatment (Table 19, symbol M); assay type: in vivo, velvetleaf (Abutilon theophrasti); settings: AAH 320 g/ha
In short: as §2

[17] = test system: barnyard grass; experiment: Test Example 5: herbicidal effect by foliage application, plastic box (Table 20, symbol H); assay type: in vivo, barnyard grass (Echinochloa crus-galli); settings: foliage application, AAH 320 g/ha, three weeks after application
In short: as §1

[18] = test system: blackgrass; experiment: Test Example 5: herbicidal effect by foliage application, plastic box (Table 20, symbol J); assay type: in vivo, blackgrass (Alopecurus myosuroides); settings: foliage application, AAH 320 g/ha, three weeks after application
In short: as §1

[19] = test system: redroot pigweed; experiment: Test Example 4: herbicidal effect by soil treatment (Table 19, symbol N); assay type: in vivo, redroot pigweed (Amaranthus retroflexus); settings: AAH 320 g/ha
In short: as §2

[20] = test system: chickweed; experiment: Test Example 4: herbicidal effect by soil treatment (Table 19, symbol P); assay type: in vivo, common chickweed (Stellaria media); settings: AAH 320 g/ha
In short: as §2

[21] = test system: Italian ryegrass; experiment: Test Example 5: herbicidal effect by foliage application, plastic box (Table 20, symbol K); assay type: in vivo, Italian ryegrass (Lolium multiflorum); settings: foliage application, AAH 320 g/ha, three weeks after application
In short: as §1

[22] = test system: green foxtail; experiment: Test Example 5: herbicidal effect by foliage application, plastic box (Table 20, symbol G); assay type: in vivo, green foxtail (Setaria viridis); settings: foliage application, AAH 320 g/ha, three weeks after application
In short: as §1

[23] = test system: rice flat sedge; experiment: Test Example 3: herbicidal effect by foliage application, Wagner pot (Table 18, symbol E); assay type: in vivo, rice flat sedge (Cyperus iria); settings: 320 g/ha
In short: as §3

[24] = test system: lambsquarters; experiment: Test Example 5: herbicidal effect by foliage application, plastic box (Table 20, symbol O); assay type: in vivo, lambsquarters (Chenopodium album); settings: foliage application, AAH 320 g/ha, three weeks after application
In short: as §1

[25] = test system: blackgrass; experiment: Test Example 4: herbicidal effect by soil treatment (Table 19, symbol J); assay type: in vivo, blackgrass (Alopecurus myosuroides); settings: AAH 320 g/ha
In short: as §2

[26] = test system: Italian ryegrass; experiment: Test Example 4: herbicidal effect by soil treatment (Table 19, symbol K); assay type: in vivo, Italian ryegrass (Lolium multiflorum); settings: AAH 320 g/ha
In short: as §2

[27] = test system: redroot pigweed; experiment: Test Example 5: herbicidal effect by foliage application, plastic box (Table 20, symbol N); assay type: in vivo, redroot pigweed (Amaranthus retroflexus); settings: foliage application, AAH 320 g/ha, three weeks after application
In short: as §1

**Q.** For `Cc1nn(C)c(=O)c(-c2c(-c3ccccc3OCC(F)F)sc3ccccc23)c1O` [1-116], which “R: persian speedwell, herbicidal effect” value [1] is on record?
**A.** Its value is 5 (Herbicidal rate of 90% or more (almost completely withered)).

**Q.** What about the “I: wild oat, herbicidal effect” value [2] of the same compound?
**A.** The value was 4 (Herbicidal rate of 70% or more and less than 90%).

**Q.** What about the “F: southern crabgrass, herbicidal effect rating” value [3] of the same compound?
**A.** The value was 0 (Herbicidal rate of 5% or less (almost no effect)).

**Q.** What about the “herbicidal effect on D (Chinese sprangletop), rating 0-5” value [4] of the same compound?
**A.** Its value is 2 (Herbicidal rate of 20% or more and less than 40%).

**Q.** And the “P: chickweed, herbicidal effect” value [5]?
**A.** Its value is 5 (Herbicidal rate of 90% or more (almost completely withered)).

**Q.** And the “herbicidal effect on H (barnyard grass), rating 0-5” value [6]?
**A.** The value was 5 (Herbicidal rate of 90% or more (almost completely withered)).

**Q.** What about the “O: lambsquarters, herbicidal effect rating” value [7] of the same compound?
**A.** The value was 3 (Herbicidal rate of 40% or more and less than 70%).

**Q.** And the “R: persian speedwell, herbicidal effect rating” value [8]?
**A.** The value was 5 (Herbicidal rate of 90% or more (almost completely withered)).

**Q.** What about the “F: southern crabgrass, herbicidal effect” value [9] of the same compound?
**A.** Its value is 4 (Herbicidal rate of 70% or more and less than 90%).

**Q.** And the “I: wild oat, herbicidal effect rating” value [10]?
**A.** The value was 1 (Herbicidal rate of 5% or more and less than 20%).

**Q.** And the “L: windgrass, herbicidal effect” value [11]?
**A.** The value was 5 (Herbicidal rate of 90% or more (almost completely withered)).

**Q.** What about the “G: green foxtail, herbicidal effect rating” value [12] of the same compound?
**A.** Its value is 0 (Herbicidal rate of 5% or less (almost no effect)).

**Q.** What about the “M: velvetleaf, herbicidal effect” value [13] of the same compound?
**A.** The value was 5 (Herbicidal rate of 90% or more (almost completely withered)).

**Q.** And the “L: windgrass, herbicidal effect rating” value [14]?
**A.** The value was 3 (Herbicidal rate of 40% or more and less than 70%).

**Q.** What about the “H: barnyard grass, herbicidal effect rating” value [15] of the same compound?
**A.** The value was 0 (Herbicidal rate of 5% or less (almost no effect)).

**Q.** And the “M: velvetleaf, herbicidal effect rating” value [16]?
**A.** The value was 2 (Herbicidal rate of 20% or more and less than 40%).

**Q.** What about the “H: barnyard grass, herbicidal effect” value [17] of the same compound?
**A.** Its value is 4 (Herbicidal rate of 70% or more and less than 90%).

**Q.** What about the “J: blackgrass, herbicidal effect” value [18] of the same compound?
**A.** The value was 4 (Herbicidal rate of 70% or more and less than 90%).

**Q.** And the “N: redroot pigweed, herbicidal effect rating” value [19]?
**A.** The value was 5 (Herbicidal rate of 90% or more (almost completely withered)).

**Q.** What about the “P: chickweed, herbicidal effect rating” value [20] of the same compound?
**A.** The value was 5 (Herbicidal rate of 90% or more (almost completely withered)).

**Q.** And the “K: Italian ryegrass, herbicidal effect” value [21]?
**A.** The value was 2 (Herbicidal rate of 20% or more and less than 40%).

**Q.** And the “G: green foxtail, herbicidal effect” value [22]?
**A.** Its value is 5 (Herbicidal rate of 90% or more (almost completely withered)).

**Q.** What about the “herbicidal effect on E (rice flat sedge), rating 0-5” value [23] of the same compound?
**A.** The value was 4 (Herbicidal rate of 70% or more and less than 90%).

**Q.** And the “O: lambsquarters, herbicidal effect” value [24]?
**A.** The value was 4 (Herbicidal rate of 70% or more and less than 90%).

**Q.** What about the “J: blackgrass, herbicidal effect rating” value [25] of the same compound?
**A.** Its value is 1 (Herbicidal rate of 5% or more and less than 20%).

**Q.** What about the “K: Italian ryegrass, herbicidal effect rating” value [26] of the same compound?
**A.** The value was 0 (Herbicidal rate of 5% or less (almost no effect)).

**Q.** And the “N: redroot pigweed, herbicidal effect” value [27]?
**A.** The value was 5 (Herbicidal rate of 90% or more (almost completely withered)).
